From PubChem BioAssay (NCI)
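These data come from cells grown in 96-well plates and exposed to compound for 48 hours at five concentrations. TGI is the concentration that stops growth completely.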

Assays:
Assay in all cases: NCI anticancer screen, dose series, 48 h
NCI-H460 lung = system: NCI-H460 lung
UACC-257 melanoma = system: UACC-257 melanoma
OVCAR-3 ovarian = system: OVCAR-3 ovarian
SNB-75 CNS = system: SNB-75 CNS
T-47D breast = system: T-47D breast
SF-295 CNS = system: SF-295 CNS
UACC-62 melanoma = system: UACC-62 melanoma
K-562 leukemia = system: K-562 leukemia
A498 renal = system: A498 renal
CCRF-CEM leukemia = system: CCRF-CEM leukemia
SK-MEL-5 melanoma = system: SK-MEL-5 melanoma
SF-539 CNS = system: SF-539 CNS
ACHN renal = system: ACHN renal
COLO 205 colon = system: COLO 205 colon
HT29 colon = system: HT29 colon
SN12C renal = system: SN12C renal
NCI-H23 lung = system: NCI-H23 lung
BT-549 breast = system: BT-549 breast

Compound	TGI (NCI-H460 lung) [µM]	TGI (UACC-257 melanoma) [µM]	TGI (OVCAR-3 ovarian) [µM]	TGI (SNB-75 CNS) [µM]	TGI (T-47D breast) [µM]	TGI (SF-295 CNS) [µM]	TGI (UACC-62 melanoma) [µM]	TGI (K-562 leukemia) [µM]	TGI (A498 renal) [µM]	TGI (CCRF-CEM leukemia) [µM]	TGI (SK-MEL-5 melanoma) [µM]	TGI (SF-539 CNS) [µM]	TGI (ACHN renal) [µM]	TGI (COLO 205 colon) [µM]	TGI (HT29 colon) [µM]	TGI (SN12C renal) [µM]	TGI (NCI-H23 lung) [µM]	TGI (BT-549 breast) [µM]
CCOC(=O)/C1=C(\C)N(Cc2ccccc2)C(=O)c2ccccc2C(=O)c2c(OC(C)=O)ccc(OC(C)=O)c21	> 100	> 100	80.9	> 100	> 100	> 100	> 100	> 100	> 100	> 100	> 100	> 100	> 100	> 100	> 100	> 100	–	–
CCCN(CCCC(NC(C)=O)C(=O)NCc1ccccc1)C(=O)N(C)N=O (stereo unspecified)	> 100	> 100	> 100	> 100	–	> 100	> 100	> 100	> 100	> 100	> 100	> 100	> 100	> 100	> 100	> 100	> 100	–
CCOC(=O)CCCc1cc(=O)c2c(C)c3[nH]c4ccc(Cl)cc4c3c(C)c2[nH]1	32.7	> 100	34.4	64	–	67	–	79.6	36.5	> 100	49.2	31.6	80.3	> 100	53.8	95.3	> 100	41.8
O=S(=O)(N=[Se](=O)(c1ccccc1)c1ccccc1)c1ccccc1	> 100	–	> 100	> 100	> 100	> 100	–	> 100	> 100	> 100	> 100	> 100	> 100	> 100	> 100	> 100	> 100	–
C[Si](C)(C)CCOCN(C(=O)C1=CCC2(CC1)OCCO2)c1ccccc1I	61.3	54.3	38.9	34.6	> 100	32	41.3	> 100	27.3	79.5	> 100	53.4	44	> 100	> 100	70.9	39	–
COC(=O)c1ccccc1/C=C1\Cc2ccc3c(c2C1=O)CCC3	> 100	> 100	> 100	> 100	> 100	> 100	> 100	> 100	> 100	> 100	> 100	> 100	> 100	> 100	> 100	> 100	> 100	–
CC12CCC(=O)N1[C@@H](c1ccccc1)[C@@H](c1ccccc1)O2 (stereo partly specified)	> 100	> 100	> 100	> 100	–	> 100	> 100	> 100	> 100	> 100	> 100	> 100	> 100	> 100	> 100	> 100	–	–
CN1C(=O)C(O)CC1c1ccccc1F (stereo unspecified)	> 100	> 100	> 100	> 100	–	> 100	> 100	> 100	> 100	> 100	> 100	> 100	> 100	> 100	> 100	> 100	> 100	> 100
S=c1[nH]nc(COc2ccc(Cl)cc2)n1-c1ccccc1	> 100	> 100	> 100	> 100	> 100	> 100	> 100	> 100	> 100	> 100	–	> 100	> 100	> 100	> 100	> 100	> 100	–
CC(C)(C)OC(=O)NC(Cc1ccc(OC(C)(C)C)cc1)C(=O)N[C@H]1CC[C@H](C(=O)O)C1 (stereo partly specified)	> 100	> 100	–	> 100	–	> 100	–	> 100	> 100	> 100	> 100	> 100	> 100	> 100	> 100	> 100	> 100	> 100
O=C1NC(=S)NC(=O)C1=Cc1ccc([N+](=O)[O-])o1	> 100	> 100	–	31.6	–	> 100	39.1	86.7	> 100	73.6	44.5	61.1	34.6	38.2	48.7	29.8	31.9	–
C=C(Cl)[C@](Cl)(CBr)CC[C@@H](Br)C(C)(C)Cl	2.46	2.99	1.58	2.09	–	2.23	19.3	16.3	3.41	46.6	24.9	1.28	2.31	3.41	2.06	17.6	28.5	11.7
CSc1ccccc1NC1=NCCO1	> 100	> 100	> 100	–	> 100	> 100	> 100	> 100	> 100	> 100	> 100	> 100	> 100	> 100	> 100	> 100	> 100	–
CN(C)C12C=CC=CC3=C(c4ccccc4)C(c4ccccc4)=C(c4ccccc4)C31c1ccccc1C2 (stereo unspecified)	> 100	> 100	–	> 100	> 100	> 100	–	> 100	–	> 100	> 100	> 100	> 100	> 100	> 100	> 100	–	–
Cc1cc(N(CCC#N)CCC#N)ccc1/C(Sc1ccccc1)=C(\NC(=O)/C=C/c1ccccc1)C(=O)Sc1ccccc1	23.4	25.9	15.8	17.7	–	14.7	12.3	> 58.7	16.5	15.3	16.3	3.44	18.7	7.71	11.8	7.29	11.2	–
Cc1cc(C(O)CCCc2ccccc2)cc(C)c1O (stereo unspecified)	> 100	95.6	> 100	78	–	93.9	> 100	> 100	81.3	> 100	48.9	> 100	92.3	> 100	–	> 100	> 100	–
O=C(Oc1ccc(C(c2c(O)c3ccccc3oc2=O)c2c(O)c3ccccc3oc2=O)cc1)c1ccc(C(=O)c2ccccc2)cc1	45.6	33.9	36.5	32.4	> 100	51.3	41	47.9	–	42.8	75	36.5	40.3	> 100	31.8	> 100	35.3	–
CCN(CC)CC(C(C)=O)C(c1ccccc1)c1c(O)c2ccccc2oc1=O (stereo unspecified)	> 100	> 100	> 100	> 100	–	> 100	> 100	> 100	> 100	> 100	> 100	> 100	> 100	> 100	> 100	> 100	–	–
CCCCN(CCCC)CC(C(=O)Nc1ccc([N+](=O)[O-])cc1[N+](=O)[O-])/C(C)=N\NC(=O)c1ccncc1 (stereo unspecified)	> 100	> 100	> 100	> 100	–	> 100	> 100	> 100	> 100	> 100	> 100	> 100	> 100	> 100	–	> 100	> 100	–
C[n+]1c(-c2ccc(/C=N\Nc3ccnc(N/N=C/c4ccc(-c5cn6ccsc6[n+]5C)cc4)n3)cc2)cn2ccsc21	> 100	43.9	> 100	92.1	–	–	76.4	> 100	54.8	63.8	35.4	70.3	> 100	66.6	> 100	> 100	> 100	–
COc1ccc(NC(=O)CSc2nc(C)nc3c2sc(=S)n3-c2ccccc2)cc1	> 10	> 10	> 10	8.21	> 10	> 10	> 10	> 10	> 10	> 10	> 10	4.97	> 10	> 10	> 10	> 10	> 10	–
O=C(O)CCC1C(=O)C2CCN1CC2 (stereo unspecified)	> 100	> 100	> 100	> 100	> 100	> 100	> 100	> 100	> 100	> 100	> 100	> 100	> 100	> 100	> 100	> 100	> 100	–
CC(=O)c1ccc(NC(=O)C(=O)CC(=O)c2sc(-n3nc(-c4ccccc4)cc3-c3ccccc3)nc2C)cc1	> 100	> 100	> 100	–	–	> 100	> 100	> 100	> 100	> 100	–	> 100	> 100	> 100	> 100	> 100	> 100	–
O=[N+]([O-])c1ccccc1S(=O)(=O)c1cccc2c1NCCC2	> 100	63.2	> 100	> 100	–	> 100	> 100	> 100	> 100	> 100	52.3	> 100	> 100	> 100	> 100	> 100	–	> 100
CC1=CP(=O)(OC(C)C)C=C(C)C1=C(Cl)Cl (stereo unspecified)	> 100	> 100	> 100	> 100	–	> 100	> 100	> 100	–	> 100	> 100	> 100	> 100	35	> 100	> 100	> 100	–
Cc1c(N)c(C#N)c2n(C)c3ncccc3n2c1=O	> 100	> 100	> 100	> 100	–	> 100	> 100	> 100	–	> 100	> 100	> 100	> 100	> 100	> 100	> 100	> 100	–
C#CCC(O)c1ccc(OC)c(OCc2ccccc2)c1 (stereo unspecified)	> 100	> 100	> 100	78.4	> 100	> 100	> 100	> 100	> 100	> 100	> 100	> 100	> 100	> 100	> 100	> 100	> 100	–
Cc1cc(N(C)c2ccccc2)nc(N(C)c2ccccc2)n1	> 100	57.7	70.4	> 100	–	92.5	> 100	> 100	> 100	46.5	69.1	66.5	95.7	49.1	39	> 100	> 100	–
COC1(OC)CCCCCCCCC(OC)(OC)CCCCCCCC1	> 100	> 100	> 100	> 100	> 100	> 100	> 100	> 100	> 100	–	> 100	> 100	> 100	> 100	> 100	> 100	> 100	–
